Measured values reported in US12459951B2, “Compounds that interact with RAS superfamily proteins for treatment of cancers, inflammatory diseases, rasopathies, and fibrotic disease” (SHY Therapeutics, LLC, priority 2022, dated 2025).
Structures can show the parent of a compound that is named as a salt.

What was measured:
IL6 = experiment: IL-6 Quantification Assay (ELISA), LPS-stimulated RAW 264.7; format: cell-based; design: inhibition: dose or concentration left out as unconfirmed; conditions: Mus musculus, RAW264.7; read-out: IL-6: % inh.
KRas wild type = experiment: Ras GTP Binding Domain Inhibition Assay (Ras Superfamily Assay); conditions: for KRas wild type + SOS: % inh.: with SOS; for KRas wild type: % inh.: without SOS
Summary of the method: (§1)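 Ni-plate capture of His-tagged protein (10-30 μg/mL, o/n 4° C); cpd 20 μM or dilution series, 1% DMSO, 3 h RT ± Sos 556-1049 last h; 100 nM Cy-labelled GTP 45 min RT; 3× wash; fluorescence read.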

Rac-1 = target: T1, Rac-1 (Homo sapiens, UniProt P63000); experiment: as above; conditions: read-out: Rac-1: % inh.
T1 construct: made in house
Summary of the method: as §1

KRas G12D mutant = experiment: as above; conditions: for KRas G12D mutant + SOS: % inh.: with SOS; for KRas G12D mutant: % inh.: without SOS
Summary of the method: as §1

Akt phosphorylation = experiment: Akt Phosphorylation Assay (western blot), Panc-1; format: cell-based, human; conditions: at 10 μM, * = activation
Summary of the method: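 Panc-1 (KRas G12D) cells were treated with compound at 10 μM final (0.3% DMSO) for 6 h at 37 °C, or with serial dilutions for IC50. Cells were either serum-starved overnight in 0.5% FBS and then stimulated with 1.5 ng/ml EGF for 15 min, or kept in 10% FBS without stimulation. Akt Ser473 phosphorylation in lysates was read by western blot.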

CO[C@H]1CC[C@@H](Nc2nc(-c3nccn3C)nn3cc(-c4ccn(C(C)C)n4)c(C)c23)C1 (racemic) [Compound 1, rac 6-(1-Isopropyl-1H-pyrazol-3-yl)-N-((1R,3S)-3-methoxycyclopentyl)-5-methyl-2-(1-methyl-1H-imidazol-2-yl)pyrrolo[2,1-f][1,2,4]triazin-4-amine]
inhibition (IL6): 75 to 100% | KRas wild type + SOS: % inh. (KRas wild type; 20 μM compound): A (A = 1-25% inhibition) | KRas wild type: % inh. (KRas wild type; 20 μM compound): 0 (0 = 0% inhibition) | inhibition at 20 µM (Rac-1): 1 to 25% | KRas G12D mutant + SOS: % inh. (KRas G12D mutant; 20 μM compound): 0 (0 = 0% inhibition) | KRas G12D mutant: % inh. (KRas G12D mutant; 20 μM compound): A (A = 1-25% inhibition) | % inh of Akt phosphorylation in Panc-1 (Akt phosphorylation): C* (46-84% activation)

COCC1CCN(c2nc(-c3nccn3C)nn3cc(-c4ccn(C(C)C)n4)c(C)c23)C1 (racemic) [Compound 2, rac 6-(1-Isopropyl-1H-pyrazol-3-yl)-4-(3-(methoxymethyl)pyrrolidin-1-yl)-5-methyl-2-(1-methyl-1H-imidazol-2-yl)pyrrolo[2,1-f][1,2,4]triazine]
inhibition (IL6): 1 to 24% | KRas wild type + SOS: % inh. (KRas wild type; 20 μM compound): 0 (0 = 0% inhibition) | KRas wild type: % inh. (KRas wild type; 20 μM compound): 0 (0 = 0% inhibition) | inhibition at 20 µM (Rac-1): 0% | KRas G12D mutant + SOS: % inh. (KRas G12D mutant; 20 μM compound): 0 (0 = 0% inhibition) | KRas G12D mutant: % inh. (KRas G12D mutant; 20 μM compound): 0 (0 = 0% inhibition) | % inh of Akt phosphorylation in Panc-1 (Akt phosphorylation): C* (46-84% activation)

COC[C@@H]1CC[C@@H]1CNc1nc(-c2nccn2C)nn2cc(-c3ccn(C(C)C)n3)c(C)c12 (racemic) [Compound 3, rac 6-(1-Isopropyl-1H-pyrazol-3-yl)-N-(((1S,2R)-2-(methoxymethyl)cyclobutyl)methyl)-5-methyl-2-(1-methyl-1H-imidazol-2-yl)pyrrolo[2,1-f][1,2,4]triazin-4-amine]
inhibition (IL6): 50 to 74% | KRas wild type + SOS: % inh. (KRas wild type; 20 μM compound): 0 (0 = 0% inhibition) | KRas wild type: % inh. (KRas wild type; 20 μM compound): 0 (0 = 0% inhibition) | inhibition at 20 µM (Rac-1): 1 to 25% | KRas G12D mutant + SOS: % inh. (KRas G12D mutant; 20 μM compound): 0 (0 = 0% inhibition) | KRas G12D mutant: % inh. (KRas G12D mutant; 20 μM compound): 0 (0 = 0% inhibition) | % inh of Akt phosphorylation in Panc-1 (Akt phosphorylation): B (26-49% inhibition)

COC1CCCN(c2nc(-c3nccn3C)nn3cc(-c4ccn(C(C)C)n4)c(C)c23)C1 (racemic) [Compound 4, rac 6-(1-Isopropyl-1H-pyrazol-3-yl)-5-methyl-2-(1-methyl-1H-imidazol-2-yl)-4-(3-(oxo-γ6-methyl)piperidin-1-yl)pyrrolo[2,1-f][1,2,4]triazine]
inhibition (IL6): 75 to 100% | KRas wild type + SOS: % inh. (KRas wild type; 20 μM compound): A (A = 1-25% inhibition) | KRas wild type: % inh. (KRas wild type; 20 μM compound): A (A = 1-25% inhibition) | inhibition at 20 µM (Rac-1): 1 to 25% | KRas G12D mutant + SOS: % inh. (KRas G12D mutant; 20 μM compound): 0 (0 = 0% inhibition) | KRas G12D mutant: % inh. (KRas G12D mutant; 20 μM compound): A (A = 1-25% inhibition) | % inh of Akt phosphorylation in Panc-1 (Akt phosphorylation): 0 (0% inhibition)

CO[C@H]1CC[C@@H](Nc2nc(-c3nccn3C)nn3cc(-c4ccn(C(C)C)n4)c(-c4ccccc4)c23)C1 (racemic) [Compound 18, rac 6-(1-Isopropyl-1H-pyrazol-3-yl)-N-((1R,3S)-3-methoxycyclopentyl)-2-(1-methyl-1H-imidazol-2-yl)-5-phenylpyrrolo[2,1-f][1,2,4]triazin-4-amine hydrochloride]
inhibition (IL6): 25 to 49% | KRas wild type + SOS: % inh. (KRas wild type; 20 μM compound): A (A = 1-25% inhibition) | KRas wild type: % inh. (KRas wild type; 20 μM compound): B (B = 26-49% inhibition) | inhibition at 20 µM (Rac-1): 0% | KRas G12D mutant + SOS: % inh. (KRas G12D mutant; 20 μM compound): 0 (0 = 0% inhibition) | KRas G12D mutant: % inh. (KRas G12D mutant; 20 μM compound): A (A = 1-25% inhibition) | % inh of Akt phosphorylation in Panc-1 (Akt phosphorylation): D* (85-100% activation)

COCC1CCN(c2nc(-c3nccn3C)nn3cc(-c4ccn(C(C)C)n4)c(-c4ccccc4)c23)C1.Cl (racemic) [Compound 19, rac 6-(1-Isopropyl-1H-pyrazol-3-yl)-4-(3-(methoxymethyl)pyrrolidin-1-yl)-2-(1-methyl-1H-imidazol-2-yl)-5-phenylpyrrolo[2,1-f][1,2,4]triazine hydrochloride salt]
inhibition (IL6): 75 to 100% | KRas wild type + SOS: % inh. (KRas wild type; 20 μM compound): A (A = 1-25% inhibition) | KRas wild type: % inh. (KRas wild type; 20 μM compound): A (A = 1-25% inhibition) | inhibition at 20 µM (Rac-1): 0% | KRas G12D mutant + SOS: % inh. (KRas G12D mutant; 20 μM compound): A (A = 1-25% inhibition) | KRas G12D mutant: % inh. (KRas G12D mutant; 20 μM compound): B (B = 26-49% inhibition) | % inh of Akt phosphorylation in Panc-1 (Akt phosphorylation): D* (85-100% activation)

COC[C@@H]1CC[C@@H]1CNc1nc(-c2nccn2C)nn2cc(-c3ccn(C(C)C)n3)c(-c3ccccc3)c12 (racemic) [Compound 20, rac 6-(1-Isopropyl-1H-pyrazol-3-yl)-N-(((1S,2R)-2-(methoxymethyl)cyclobutyl)methyl)-2-(1-methyl-1H-imidazol-2-yl)-5-phenylpyrrolo[2,1-f][1,2,4]triazin-4-amine]
inhibition (IL6): 75 to 100% | KRas wild type + SOS: % inh. (KRas wild type; 20 μM compound): A (A = 1-25% inhibition) | KRas wild type: % inh. (KRas wild type; 20 μM compound): A (A = 1-25% inhibition) | inhibition at 20 µM (Rac-1): 0% | KRas G12D mutant + SOS: % inh. (KRas G12D mutant; 20 μM compound): 0 (0 = 0% inhibition) | KRas G12D mutant: % inh. (KRas G12D mutant; 20 μM compound): A (A = 1-25% inhibition) | % inh of Akt phosphorylation in Panc-1 (Akt phosphorylation): D (85-100% inhibition)

COC1CCCN(c2nc(-c3nccn3C)nn3cc(-c4ccn(C(C)C)n4)c(-c4ccccc4)c23)C1 (racemic) [Compound 21, rac 6-(1-Isopropyl-1H-pyrazol-3-yl)-4-(3-methoxypiperidin-1-yl)-2-(1-methyl-1H-imidazol-2-yl)-5-phenylpyrrolo[2,1-f][1,2,4]triazine]
inhibition (IL6): 1 to 24% | KRas wild type + SOS: % inh. (KRas wild type; 20 μM compound): A (A = 1-25% inhibition) | KRas wild type: % inh. (KRas wild type; 20 μM compound): A (A = 1-25% inhibition) | inhibition at 20 µM (Rac-1): 0% | KRas G12D mutant + SOS: % inh. (KRas G12D mutant; 20 μM compound): 0 (0 = 0% inhibition) | KRas G12D mutant: % inh. (KRas G12D mutant; 20 μM compound): B (B = 26-49% inhibition) | % inh of Akt phosphorylation in Panc-1 (Akt phosphorylation): C* (46-84% activation)

COc1cccc(-c2cn3nc(-c4nccn4C)nc(N[C@@H]4CC[C@@H](OC)C4)c3c2-c2ccccc2)c1Cl.Cl (racemic) [Compound 34, rac 6-(2-Chloro-3-methoxyphenyl)-N-((1R,3R)-3-methoxycyclopentyl)-2-(1-methyl-1H-imidazol-2-yl)-5-phenylpyrrolo[2,1-f][1,2,4]triazin-4-amine hydrochloride]
inhibition (IL6): 75 to 100% | KRas wild type + SOS: % inh. (KRas wild type; 20 μM compound): A (A = 1-25% inhibition) | KRas wild type: % inh. (KRas wild type; 20 μM compound): 0 (0 = 0% inhibition) | inhibition at 20 µM (Rac-1): 26 to 49% | KRas G12D mutant + SOS: % inh. (KRas G12D mutant; 20 μM compound): 0 (0 = 0% inhibition) | KRas G12D mutant: % inh. (KRas G12D mutant; 20 μM compound): 0 (0 = 0% inhibition) | % inh of Akt phosphorylation in Panc-1 (Akt phosphorylation): D (85-100% inhibition)

COc1cccc(-c2cn3nc(-c4nccn4C)nc(N[C@@H]4CC[C@@H](OC)C4)c3c2-c2ccccc2)c1C (racemic) [Compound 270, rac 6-(3-Methoxy-2-methylphenyl)-N-((1R,3R)-3-methoxycyclopentyl)-2-(1-methyl-1H-imidazol-2-yl)-5-phenylpyrrolo[2,1-f][1,2,4]triazin-4-amine]
inhibition (IL6): 75 to 100% | KRas wild type + SOS: % inh. (KRas wild type; at 20 μM): A (A = 1-25% inhibition) | KRas wild type: % inh. (KRas wild type; at 20 μM): B (B = 26-49% inhibition) | inhibition at 20 µM (Rac-1): 26 to 49% | KRas G12D mutant + SOS: % inh. (KRas G12D mutant; at 20 μM): B (B = 26-49% inhibition) | KRas G12D mutant: % inh. (KRas G12D mutant; at 20 μM): B (B = 26-49% inhibition) | % inh of Akt phosphorylation in Panc-1 (Akt phosphorylation): D (85-100% inhibition)

COc1cccc(-c2cn3nc(-c4nccn4C)nc(N[C@@H]4CC[C@H](OC)C4)c3c2-c2ccccc2)c1C (racemic) [Compound 271, rac 6-(3-Methoxy-2-methylphenyl)-N-((1R,3S)-3-methoxycyclopentyl)-2-(1-methyl-1H-imidazol-2-yl)-5-phenylpyrrolo[2,1-f][1,2,4]triazin-4-amine]
inhibition (IL6): 75 to 100% | KRas wild type + SOS: % inh. (KRas wild type; at 20 μM): A (A = 1-25% inhibition) | KRas wild type: % inh. (KRas wild type; at 20 μM): B (B = 26-49% inhibition) | inhibition at 20 µM (Rac-1): 26 to 49% | KRas G12D mutant + SOS: % inh. (KRas G12D mutant; at 20 μM): B (B = 26-49% inhibition) | KRas G12D mutant: % inh. (KRas G12D mutant; at 20 μM): B (B = 26-49% inhibition) | % inh of Akt phosphorylation in Panc-1 (Akt phosphorylation): D (85-100% inhibition)

COCCNc1nc(-c2nccn2C)nn2cc(-c3ccn(C(C)C)n3)c(C)c12 [Compound 5, 6-(1-Isopropyl-1H-pyrazol-3-yl)-N-(2-methoxyethyl)-5-methyl-2-(1-methyl-1H-imidazol-2-yl)pyrrolo[2,1-f][1,2,4]triazin-4-amine]
inhibition (IL6): 0% | inhibition at 20 µM (Rac-1): 26 to 49% | % inh of Akt phosphorylation in Panc-1 (Akt phosphorylation): 0 (0% inhibition)

COc1cccc(Nc2nc(-c3nccn3C)nn3cc(-c4ccn(C(C)C)n4)c(C)c23)n1 [Compound 7, 6-(1-Isopropyl-1H-pyrazol-3-yl)-N-(6-methoxypyridin-2-yl)-5-methyl-2-(1-methyl-1H-imidazol-2-yl)pyrrolo[2,1-f][1,2,4]triazin-4-amine]
inhibition (IL6): 1 to 24% | KRas wild type + SOS: % inh. (KRas wild type; 20 μM compound): 0 (0 = 0% inhibition) | KRas wild type: % inh. (KRas wild type; 20 μM compound): A (A = 1-25% inhibition) | inhibition at 20 µM (Rac-1): 0% | KRas G12D mutant + SOS: % inh. (KRas G12D mutant; 20 μM compound): 0 (0 = 0% inhibition) | KRas G12D mutant: % inh. (KRas G12D mutant; 20 μM compound): A (A = 1-25% inhibition) | % inh of Akt phosphorylation in Panc-1 (Akt phosphorylation): 0 (0% inhibition)

Cc1c(-c2ccn(C(C)C)n2)cn2nc(-c3nccn3C)nc(Nc3ccn(C4CC4)n3)c12 [Compound 84, N-(1-Cyclopropyl-1H-pyrazol-3-yl)-6-(1-isopropyl-1H-pyrazol-3-yl)-5-methyl-2-(1-methyl-1H-imidazol-2-yl)pyrrolo[2,1-f][1,2,4]triazin-4-amine]
inhibition (IL6): 25 to 49% | inhibition at 20 µM (Rac-1): 76 to 100% | % inh of Akt phosphorylation in Panc-1 (Akt phosphorylation): D* (85-100% activation)
